Test results taken from patent US9694016B2 (Novartis AG, priority 2013, dated 2017).

target: b-Raf (V600E) (Homo sapiens (Human), UniProt P15056, V600E); settings: read-out: b-Raf IC-50
Sequence (P15056 whole entry V600E): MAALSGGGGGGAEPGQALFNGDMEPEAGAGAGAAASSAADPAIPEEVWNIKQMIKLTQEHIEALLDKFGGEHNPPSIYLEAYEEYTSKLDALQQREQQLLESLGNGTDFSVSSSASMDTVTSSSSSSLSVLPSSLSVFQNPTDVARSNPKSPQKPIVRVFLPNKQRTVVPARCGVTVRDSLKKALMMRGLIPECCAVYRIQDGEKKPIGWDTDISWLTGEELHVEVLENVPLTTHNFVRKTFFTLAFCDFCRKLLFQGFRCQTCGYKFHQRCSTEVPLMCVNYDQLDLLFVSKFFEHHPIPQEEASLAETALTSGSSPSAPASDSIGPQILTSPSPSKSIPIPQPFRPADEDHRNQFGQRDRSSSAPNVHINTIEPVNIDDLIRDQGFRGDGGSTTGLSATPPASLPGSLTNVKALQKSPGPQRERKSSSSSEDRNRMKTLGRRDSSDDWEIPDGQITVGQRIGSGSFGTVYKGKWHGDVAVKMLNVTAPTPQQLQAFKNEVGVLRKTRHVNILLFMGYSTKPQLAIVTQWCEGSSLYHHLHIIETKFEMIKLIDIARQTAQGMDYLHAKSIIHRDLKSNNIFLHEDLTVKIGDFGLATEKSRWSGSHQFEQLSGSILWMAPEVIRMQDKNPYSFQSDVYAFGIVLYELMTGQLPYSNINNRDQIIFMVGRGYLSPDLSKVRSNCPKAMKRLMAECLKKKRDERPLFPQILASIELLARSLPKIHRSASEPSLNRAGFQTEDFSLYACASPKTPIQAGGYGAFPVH

| SMILES | IC50 |
| --- | --- |
| CCOc1ncc(-c2cc(NC(=O)c3cnnc(C(F)(F)F)c3)cnc2C)cc1N1C2CCC1COC2 [Example 282, N-(5′-(3-oxa-8-azabicyclo[3.2.1]octan-8-yl)-6′-ethoxy-2-methyl-[3,3′-bipyridin]-5-yl)-6-(trifluoromethyl)pyridazine-4-carboxamide] | 53 nM |

same assay, conditions: read-out: b-Raf IC-50; Table 2; AlphaScreen, 3 hours reaction

| SMILES | IC50 |
| --- | --- |
| Cc1ncc(NC(=O)c2cnnc(C(F)(F)F)c2)cc1-c1cnc(N(C)C)c(N2CCOCC2)c1 [Example 270, N-(6′-(dimethylamino)-2-methyl-5′-morpholino-[3,3′-bipyridin]-5-yl)-6-(trifluoromethyl)pyridazine-4-carboxamide] | 0.5 nM |
| Cc1ncc(NC(=O)c2cnnc(C3CC3)c2)cc1-c1cnc(N(C)C)c(N2CCOCC2)c1 [Example 271, 6-cyclopropyl-N-(6′-(dimethylamino)-2-methyl-5′-morpholino-[3,3′-bipyridin]-5-yl)pyridazine-4-carboxamide] | 0.7 nM |
| Cc1ncc(NC(=O)c2ccnc(C(C)(C)C#N)c2)cc1-c1cnc(OC2CCOCC2)c(N2CCOCC2)c1 [Example 272, 2-(2-cyanopropan-2-yl)-N-(2-methyl-5′-morpholino-6′-((tetrahydro-2H-pyran-4-yl)oxy)-[3,3′-bipyridin]-5-yl)isonicotinamide] | 6.3 nM |
| Cc1ncc(NC(=O)c2ccnc(C(C)(C)F)c2)cc1-c1cnc(OC2CCOCC2)c(N2CCOCC2)c1 [Example 273, 2-(2-fluoropropan-2-yl)-N-(2-methyl-5′-morpholino-6′-((tetrahydro-2H-pyran-4-yl)oxy)-[3,3′-bipyridin]-5-yl)isonicotinamide] | 2.7 nM |
| Cc1ccc(NC(=O)c2ccnc(S(C)(=O)=O)c2)cc1-c1cnc(OC2CCOCC2)c(N2CCOCC2)c1 [Example 274, N-(4-methyl-3-(5-morpholino-6-((tetrahydro-2H-pyran-4-yl)oxy)pyridin-3-yl)phenyl)-2-(methylsulfonyl)isonicotinamide] | 0.8 nM |
| Cc1ccc(NC(=O)c2cnnc(C(F)(F)F)c2)cc1-c1cnc(OC2CCOCC2)c(N2CCOCC2)c1 [Example 275, N-(4-methyl-3-(5-morpholino-6-((tetrahydro-2H-pyran-4-yl)oxy)pyridin-3-yl)phenyl)-6-(trifluoromethyl)pyridazine-4-carboxamide] | 0.5 nM |
| Cc1ccc(NC(=O)c2cnnc(C3CC3)c2)cc1-c1cnc(OC2CCOCC2)c(N2CCOCC2)c1 [Example 276, 6-cyclopropyl-N-(4-methyl-3-(5-morpholino-6-((tetrahydro-2H-pyran-4-yl)oxy)pyridin-3-yl)phenyl)pyridazine-4-carboxamide] | 0.4 nM |
| Cc1ccc(NC(=O)c2ccnc(C(C)(C)O)c2)cc1-c1cnc(OC2CCOCC2)c(N2CCOCC2)c1 [Example 277, 2-(2-hydroxypropan-2-yl)-N-(4-methyl-3-(5-morpholino-6-((tetrahydro-2H-pyran-4-yl)oxy)pyridin-3-yl)phenyl)isonicotinamide] | 1 nM |
| Cc1ncc(NC(=O)c2ccnc(C(F)(F)F)c2)cc1-c1cnc(OC2CCOCC2)c(N2C3CCC2COC3)c1 [Example 278, N-(5′-(3-oxa-8-azabicyclo[3.2.1]octan-8-yl)-2-methyl-6′-((tetrahydro-2H-pyran-4-yl)oxy)-[3,3′-bipyridin]-5-yl)-2-(trifluoromethyl)isonicotinamide] | 8.4 nM |
| Cc1ncc(NC(=O)c2ccnc(C(C)(C)F)c2)cc1-c1cnc(OC2CCOCC2)c(N2C3CCC2COC3)c1 [Example 279, N-(5′-(3-oxa-8-azabicyclo[3.2.1]octan-8-yl)-2-methyl-6′-((tetrahydro-2H-pyran-4-yl)oxy)-[3,3′-bipyridin]-5-yl)-2-(2-fluoropropan-2-yl)isonicotinamide] | 3200 nM |
| CCOc1ncc(-c2cc(NC(=O)c3cnnc(C(F)(F)F)c3)ccc2C)cc1N1CCOCC1 [Example 280, N-(3-(6-ethoxy-5-morpholinopyridin-3-yl)-4-methylphenyl)-6-(trifluoromethyl)pyridazine-4-carboxamide] | 1.1 nM |
| COc1ncc(-c2cc(NC(=O)c3ccnc(C(C)(C)F)c3)cnc2C)cc1N1CCOCC1 [Example 281, N-(6′-methoxy-2-methyl-5′-morpholino-[3,3′-bipyridin]-5-yl)-2-(2-fluoropropan-2-yl)isonicotinamide] | 6.3 nM |
| COc1ncc(-c2cc(NC(=O)c3ccnc(C4(C#N)CC4)c3)cnc2C)cc1N1CCOCC1 [Example 283, 2-(1-cyanocyclopropyl)-N-(6′-methoxy-2-methyl-5-morpholino-[3,3′-bipyridin]-5-yl)isonicotinamide] | 6 nM |
| CCOc1ncc(-c2cc(NC(=O)c3cnnc(C(C)(C)C#N)c3)ccc2C)cc1N1CCOCC1 [Example 284, 6-(2-cyanopropan-2-yl)-N-(3-(6-ethoxy-5-morpholinopyridin-3-yl)-4-methylphenyl)pyridazine-4-carboxamide] | 1.1 nM |
| CCOc1ncc(-c2cc(NC(=O)c3cnnc(C(F)(F)F)c3)cnc2C)cc1N1CCOC[C@H]1C [Example 285] | 200 nM |
| CCOc1ncc(-c2cc(NC(=O)c3cnnc(C(F)(F)F)c3)cnc2C)cc1N1CCOC[C@@H]1C [Example 286, (S)—N-(6′-ethoxy-2-methyl-5′-(3-methylmorpholino)-[3,3′-bipyridin]-5-yl)-6-(trifluoromethyl)pyridazine-4-carboxamide] | 200 nM |
| CCOc1ncc(-c2cc(NC(=O)c3cnnc(C(C)(C)C#N)c3)cnc2C)cc1N1CCOCC1 [Example 287, 6-(2-cyanopropan-2-yl)-N-(6′-ethoxy-2-methyl-5′-morpholino-[3,3′-bipyridin]-5-yl)pyridazine-4-carboxamide] | 16.5 nM |

| SMILES | IC50 |
| --- | --- |
| Cc1ncc(NC(=O)c2ccnc(C3(C#N)CC3)c2)cc1-c1cnc(Cl)c(N2CCOCC2)c1 [Example 288, N-(6′-chloro-2-methyl-5-morpholino-[3,3′-bipyridin]-5-yl)-2-(1-cyanocyclopropyl)isonicotinamide] | 6 nM |
| Cc1ncc(NC(=O)c2ccnc(C(C)(C)C#N)c2)cc1-c1cnc(Cl)c(N2CCOCC2)c1 [Example 289, N-(6′-chloro-2-methyl-5′-morpholino-[3,3-bipyridin]-5-yl)-2-(2-cyanopropan-2-yl)isonicotinamide] | 15.6 nM |
| Cc1ncc(NC(=O)c2ccnc(C(C)(C)F)c2)cc1-c1cnc(Cl)c(N2CCOCC2)c1 [Example 290, N-(6′-chloro-2-methyl-5′-morpholino-[3,3-bipyridin]-5-yl)-2-(2-fluoropropan-2-yl)isonicotinamide] | 6 nM |
| Cc1ncc(NC(=O)c2ccnc(C(F)(F)F)c2)cc1-c1cnc(Cl)c(N2CCOCC2)c1 [Example 291, N-(6′-chloro-2-methyl-5′-morpholino-[3,3′-bipyridin]-5-yl)-2-(trifluoromethyl)isonicotinamide] | 2.3 nM |
| Cc1ncc(NC(=O)c2cnnc(C(F)(F)F)c2)cc1-c1cnc(Cl)c(N2CCOCC2)c1 [Example 292, N-(6′-chloro-2-methyl-5′-morpholino-[3,3′-bipyridin]-5-yl)-6-(trifluoromethyl)pyridazine-4-carboxamide] | 3.8 nM |
| Cc1ncc(NC(=O)c2cnnc(C(C)(C)C#N)c2)cc1-c1cnc(Cl)c(N2CCOCC2)c1 [Example 293, N-(6′-chloro-2-methyl-5′-morpholino-[3,3′-bipyridin]-5-yl)-6-(2-cyanopropan-2-yl)pyridazine-4-carboxamide] | 32.3 nM |
| Cc1ncc(NC(=O)c2ccnc(C(C)(C)F)c2)cc1-c1cncc(N2CCOCC2)c1 [Example 294, 2-(2-fluoropropan-2-yl)-N-(2-methyl-5′-morpholino-[3,3′-bipyridin]-5-yl)isonicotinamide] | 10.8 nM |
| Cc1ncc(NC(=O)c2ccnc(C(F)(F)F)c2)cc1-c1cncc(N2CCOCC2)c1 [Example 295] | 3.6 nM |
| Cc1ncc(NC(=O)c2cnnc(C(C)(C)C#N)c2)cc1-c1cncc(N2CCOCC2)c1 [Example 296, 6-(2-cyanopropan-2-yl)-N-(2-methyl-5′-morpholino-[3,3′-bipyridin]-5-yl)pyridazine-4-carboxamide] | 24.7 nM |
| Cc1ncc(NC(=O)c2ccnc(C(C)(C)C#N)c2)cc1-c1cncc(N2CCOCC2)c1 [Example 297, 2-(2-cyanopropan-2-yl)-N-(2-methyl-5′-morpholino-[3,3′-bipyridin]-5-yl)isonicotinamide] | 18.8 nM |
| Cc1ncc(NC(=O)c2ccnc(C(C)(C)F)c2)cc1-c1cnc(F)c(N2CCOCC2)c1 [Example 298, N-(6′-fluoro-2-methyl-5′-morpholino-[3,3′-bipyridin]-5-yl)-2-(2-fluoropropan-2-yl)isonicotinamide] | 3.9 nM |
| Cc1ncc(NC(=O)c2ccnc(C(C)(C)F)c2)cc1-c1cnc(OCCO)c(N2CCOCC2)c1 [Example 299, 2-(2-fluoropropan-2-yl)-N-(6′-(2-hydroxyethoxy)-2-methyl-5′-morpholino-[3,3′-bipyridin]-5-yl)isonicotinamide] | 6.9 nM |
| Cc1ncc(NC(=O)c2ccnc(C(C)(C)C#N)c2)cc1-c1cnc(OCCO)c(N2CCOCC2)c1 [Example 300, 2-(2-cyanopropan-2-yl)-N-(6′-(2-hydroxyethoxy)-2-methyl-5′-morpholino-[3,3′-bipyridin]-5-yl)isonicotinamide] | 14.6 nM |
| Cc1ncc(NC(=O)c2cc(C(F)(F)F)ccn2)cc1-c1cnc(OCCO)c(N2CCOCC2)c1 [Example 301, N-(6′-(2-hydroxyethoxy)-2-methyl-5′-morpholino-[3,3′-bipyridin]-5-yl)-4-(trifluoromethyl)picolinamide] | 3.2 nM |
| Cc1ccc(NC(=O)c2cnnc(C3(C#N)CC3)c2)cc1-c1cnc(OC2CCOCC2)c(N2CCOCC2)c1 [Example 302, 6-(1-cyanocyclopropyl)-N-(4-methyl-3-(5-morpholino-6-((tetrahydro-2H-pyran-4-yl)oxy)pyridin-3-yl)phenyl)pyridazine-4-carboxamide] | 0.6 nM |
| CCOc1ncc(-c2cc(NC(=O)c3cnnc(C(C)(C)C#N)c3)cnc2C)cc1N1CCOC[C@H]1C [Example 303, (R)-6-(2-cyanopropan-2-yl)-N-(6′-ethoxy-2-methyl-5′-(3-methylmorpholino)-[3,3′-bipyridin]-5-yl)pyridazine-4-carboxamide] | 100 nM |
